# Laboratory results: patent publication EP0696280B1, “SUBSTITUTED PYRROLIDIN-3-YL-ALKYL-PIPERIDINES USEFUL AS TACHYKININ ANTAGONISTS” (MERRELL PHARMACEUTICALS INC., priority 1993, dated 1994)
# What was measured:
# [1] = molecular target: T1, NK1 receptor (Homo sapiens, UniProt P25103); assay: Antagonism of NK1 receptor mediated (SP-induced) phosphatidylinositol turnover in UC11 cells; format: cell-based; conditions: Schild analysis, SP in UC11 cells; mean (95% confidence limits), 2-3 experiments
# T1 construct: endogenous in cells; host or cells: UC11 cells
# T1 sequence (P25103 whole entry): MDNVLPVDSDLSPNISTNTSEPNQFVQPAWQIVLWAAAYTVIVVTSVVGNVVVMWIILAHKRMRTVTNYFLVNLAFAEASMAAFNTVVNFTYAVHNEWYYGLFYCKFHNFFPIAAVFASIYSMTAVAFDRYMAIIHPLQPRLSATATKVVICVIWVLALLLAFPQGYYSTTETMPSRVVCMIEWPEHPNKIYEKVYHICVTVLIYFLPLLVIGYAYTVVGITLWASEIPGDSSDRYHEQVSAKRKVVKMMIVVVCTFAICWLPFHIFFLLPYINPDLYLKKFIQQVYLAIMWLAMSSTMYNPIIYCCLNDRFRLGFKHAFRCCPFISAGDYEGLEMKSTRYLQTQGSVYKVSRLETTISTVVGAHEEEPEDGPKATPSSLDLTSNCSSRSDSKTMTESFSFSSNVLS
# Method: (§1) Tachykinin-mediated inositol phosphate accumulation was measured in UCll or SKLKB82#3 cells in the presence and absence of NK1 or NK2 receptor antagonists, respectively. Tissues were incubated in Krebs-Henseleit buffer at 37°C with 95% O2-5% CO2 gassing. Tissues were then incubated with fresh buffer containing 100 µCi of myo-[2-^3H(N)] inositol at 37°C for 60 min with gentle gassing. After washing twice at room temperature in 5 ml buffer containing 10 mM LiCl, tissues were incubated for 30 min at room temperature with a buffer change at 15 min. Buffer was removed and Krebs-Henseleit buffer (containing 40 µg/ml bacitracin, 4 µg/ml each of leupeptin and chymostatin, 0.1% bovine serum albumin and 10 mM each of thiorphan and LiCl) added. After 15 min, SP was added to UCll cells or NKA to SKLKB82#3 cells at various concentrations to start the reaction. After incubation for 60 min at room temperature the reaction was terminated by addition of 930 µl chloroform: methanol (1:2 by volume) to each tube, followed by 310 µl chloroform and 310 µl doubly distilled water. Samples were vortexed, centrifuged, and 0.9 ml of the aqueous (top) phase removed and added to 2 ml ddH2O. The mixture was vortexed and loaded onto a 50% Bio-Rad AG 1-X8 (formate form, 100-200 mesh) exchange column (Bio-Rad Laboratories, Hercules, CA). The columns were washed, in order, with: 1) 10 ml doubly distilled water, 2) 5 ml of 5 mM disodium tetraborate/60 mM sodium formate, and 3) 5 ml of 1 M ammonium formate/0.1 M formic acid. The third elution was collected and 1 ml counted in 7 ml scintillation fluid. A 50 µl aliquot of the organic (bottom) phase was removed, dried in a scintillation vial and counted in 7 ml scintillation fluid.
# (§2) The ratio of DPM in the aqueous phase aliquot (total inositol phosphates) to the DPM in the 50 µl organic phase aliquot (total [^3H]inositol incorporated) was calculated for each sample. Data are expressed as a percent of agonist-induced accumulation of [^3H]-inositol phosphates over basal levels. The ratios in the presence of test compound and/or standards were compared to the ratios for control samples (i.e. no stimulating agonist). Dose-response graphs were constructed and the abilities of the test compounds to inhibit tachykinin-induced phosphatidylinositol turnover determined with the aid of a computer program. […] Data is expressed as percent stimulation of total inositol phosphate accumulation over basal levels and normalized to the maximum response produced by SP. […] Schild analysis is performed using dose response curves (such as those presented in Figures 1a and 1b) to obtain a value indicative of the strength of a competitive antagonist and is expressed as the pA2, which is the negative logarithm of the molar concentration of antagonist which reduces the effect of a dose of agonist to one-half of that expected at the dose of agonist. […]
# (§3) Values are mean (95% confidence limits) derived from Schild analysis of 2-3 experiments per compound per receptor.
# [2] = molecular target: T2, NK2 receptor (Bos taurus, UniProt P05363); assay: Antagonism of NK2 receptor mediated (NKA-induced) phosphatidylinositol turnover in SKLKB82#3 cells; format: cell-based; conditions: Schild analysis, NKA in SKLKB82#3 cells; mean (95% confidence limits), 2-3 experiments
# T2 construct: expressed in transfected cells; host or cells: SKLKB82#3 cells
# T2 sequence (P05363 1-384): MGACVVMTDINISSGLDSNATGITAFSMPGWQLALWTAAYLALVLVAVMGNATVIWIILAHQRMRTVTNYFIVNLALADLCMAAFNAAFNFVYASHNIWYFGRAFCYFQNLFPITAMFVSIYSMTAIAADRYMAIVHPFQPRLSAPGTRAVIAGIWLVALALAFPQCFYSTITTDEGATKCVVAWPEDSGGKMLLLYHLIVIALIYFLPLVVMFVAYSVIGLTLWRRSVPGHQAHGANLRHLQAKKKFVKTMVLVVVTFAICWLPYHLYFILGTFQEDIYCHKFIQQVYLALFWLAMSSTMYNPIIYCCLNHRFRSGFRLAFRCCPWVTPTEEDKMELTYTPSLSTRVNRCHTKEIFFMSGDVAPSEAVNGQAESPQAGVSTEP
# Method: as §1, §2, §3
smiles,measurement,setting,value
"COc1cc(C(=O)N2CCC(CCN3CCC(C(N)=O)(c4ccccc4)CC3)(c3ccc(Cl)c(Cl)c3)C2)cc(OC)c1OC (single isomer, unassigned; (+)) [Example 20, (+)-1-[2-[3-(3,4-dichloro-phenyl)-1-(3,4,5-trimethoxy-benzoyl)-pyrrolidin-3-yl]-ethyl]-4-phenyl-piperidine-4-carboxylic acid amide]",NK-1 RECEPTOR -SLOPE,[1],1.03 (0.78-1.28)
same,NK-2 RECEPTOR -SLOPE,[2],1.00 (0.63-1.37)
